In brackets after ≈: the same amount, converted by molar mass. Where two headings read alike, the source gives them in different places.
Assays:
Botrtyis cinerea (Bc) = experiment: In vitro pathogen growth inhibition assay, Bc; format: cell-based; conditions: 48 h
How it was run: (§1)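 Value reported is the compound concentration reaching ≥90% growth inhibition, from OD readings at 24 and 48 h after blank subtraction, confirmed visually. Inoculum was spores diluted in 17% V8 medium, except Rs, using 1.5 mm mycelial plugs in ¼ PDB; actual compound concentration corrected via OD600.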

[1] = test system: Collectotrichum graminicola (Cg); experiment: In vitro pathogen growth inhibition assay, Cg; format: cell-based; conditions: 48 h
How it was run: as §1

Diplodia maydis (Dm) = experiment: In vitro pathogen growth inhibition assay, Dm; format: cell-based; conditions: Stenocarpella maydis, 48 h
How it was run: (§2)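 Spores of Dm, Fv and Pc were diluted in 17% V8 liquid medium; Rs used 1.5 mm mycelial plugs in ¼ PDB. Compounds from 2.5 mg/ml DMSO stocks were combined with inoculum, growth was read by OD600 at 24 and 48 h with blank subtraction, and the reported value is the concentration giving ≥90% inhibition.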

[2] = test system: Fusarium moniliforme (Fm); experiment: In vitro pathogen growth inhibition assay, Fm; format: cell-based; conditions: Fusarium verticillioides
How it was run: as §1

[3] = test system: Fusarium virguliforme (Fv); experiment: In vitro pathogen growth inhibition assay, Fv; format: cell-based
How it was run: as §2

[4] = test system: Phytophthora capsici (Pc); experiment: In vitro pathogen growth inhibition assay, Pc; format: cell-based; conditions: 48 h
How it was run: as §2

Rhizoctonia solani (Rs) = experiment: In vitro pathogen growth inhibition assay, Rs (mycelial plugs); format: cell-based; conditions: mycelial plugs; for IC90: Rhizoctonia solani, 48 h
How it was run: as §2

Septoria tritici (St) = experiment: In vitro pathogen growth inhibition assay, St; format: cell-based; conditions: Zymoseptoria tritici, 48 h
How it was run: as §1

[5] = test system: Blumeria graminis f. sp. hordei; experiment: Foliar protection test for barley powdery mildew control; format: in vivo; conditions: foliar spray on Hordeum vulgare cv. Perry, inoculated 24 hours after treatment, evaluated 7 days later
Procedure: Plants (Hordeum vulgare cv. Perry) were grown for 6 days in 2-inch square pots containing Metromix 200 medium amended with fertilizer. […] After inoculation with the pathogen of Blumeria graminis f. sp. hordei, plants were kept at conditions of 20 to 22° C., 70% relative humidity, and 200 uM of light to facilitate infection and disease development. […] An atomizer was used for applying the solution onto both sides of the leaves until thoroughly wetted. […] At 24 hours after treatment, the plants were moved to a cooler chamber and inoculated by shaking well-colonized, untreated stock plants above the treated plants. This allowed producing a settling cloud of spores and resulting in uniform infection. Efficacy was evaluated in 7 days later by examining leaves for colonization and growth of mildew. Table 4 lists the results of barley powdery mildew control at a compound concentration of 10 ppm or lower.

Sphaerotheca fuliginea = experiment: Foliar protection for cucumber powdery mildew control; format: in vivo; conditions: foliar spray on Cucumis sativus cv. Straight Eight, inoculated 24 hours after treatment, evaluated 7 days later
Procedure: Plants (Cucumis sativus cv. Straight Eight) were grown for 10 days in 2.5-inch square pots containing Metromix 200 medium amended with fertilizer. For propagation, plants were maintained in a growth chamber at conditions of 23 to 27° C., 16 hour light cycle, ambient humidity, and with sub-irrigation as needed. After inoculation with the pathogen of Sphaerotheca fuliginea, plants were kept at conditions of 23 to 27° C., 16 hour light cycle, 60% relative humidity, and with sub-irrigation as needed to facilitate infection and disease development. […] An atomizer was used for applying the solution onto both sides of the leaves until thoroughly wetted. […] At 24 hours after treatment, the plants were moved to a cooler chamber and inoculated by shaking well-colonized, untreated stock plants above the treated plants. This allowed producing a settling cloud of spores and resulting in uniform infection. Inoculated plants were kept near other sporulating stock plants to allow for infection of newly emerging leaves. Efficacy was evaluated in 7 days later by examining leaves for colonization and growth of mildew. Table 5 lists the results of cucumber powdery mildew control at a compound concentration of 10 ppm or lower.

[6] = test system: Mycosphaerella graminicola (synthetic Septoria tritici); experiment: Foliar protection test for wheat septoria leaf blotch control; format: in vivo; conditions: foliar spray on Triticum aestivum cv. WinterHawk, inoculated 1 hour after treatment, evaluated 16 days later
Fusarium graminearum = format: in vivo; conditions: spray on flowering Triticum aestivum cv. Samson, inoculated 24 hours after treatment, evaluated 14 days later
Puccinia triticina = experiment: Foliar protection test for wheat leaf rust control; format: in vivo; conditions: foliar application to wheat (Triticum aestivum cv. Winterhawk), evaluated 10 days later
Phakopsora pachyrhizi = experiment: Foliar protection test for Asian soybean rust control; format: in vivo; conditions: foliar application to soybean (Glycine max AG4832), percent disease area evaluated 14 days later
[7] = ≥90% growth inhibition, 48 hours, vs 2% DMSO control, read-out: Compound Concentration (ppm) sufficient for ≥90% inhibition of Bc
[8] = ≥90% growth inhibition, 48 hours, vs 2% DMSO control, read-out: Compound Concentration (ppm) sufficient for ≥90% inhibition of Cg
[9] = ≥90% growth inhibition, 48 hours, vs 2% DMSO control, read-out: Compound Concentration (ppm) sufficient for ≥90% inhibition of Dm
[10] = ≥90% growth inhibition, 48 hours, vs 2% DMSO control, read-out: Compound Concentration (ppm) sufficient for ≥90% inhibition of Fm
[11] = ≥90% growth inhibition, 48 hours, vs 2% DMSO control, read-out: Compound Concentration (ppm) sufficient for ≥90% inhibition of Fv
[12] = ≥90% growth inhibition, 48 hours, vs 2% DMSO control, read-out: Compound Concentration (ppm) sufficient for ≥90% inhibition of Pc
[13] = ≥90% growth inhibition, 48 hours, vs 2% DMSO control, read-out: Compound Concentration (ppm) sufficient for ≥90% inhibition of Rs
[14] = ≥90% growth inhibition, 48 hours, vs 2% DMSO control, read-out: Compound Concentration (ppm) sufficient for ≥90% inhibition of St

SMILES	IC90 (Botrtyis cinerea (Bc); [7])	IC90 [1, 8]	IC90 (Diplodia maydis (Dm); [9])	IC90 [2, 10]	IC90 [3, 11]	IC90 [4, 12]	IC90 (Rhizoctonia solani (Rs); [13])	IC90 (Septoria tritici (St); [14])	Barley Powdery Mildew Control at a compound concentration of 10 ppm or lower [5]	Cucumber Powdery Mildew Control at a compound concentration of 10 ppm or lower (Sphaerotheca fuliginea)	Septoria Leaf Blotch Control at a compound concentration of 25 ppm or lower [6]	Wheat Fusarium Head Blight Control at a compound concentration of 25 ppm or lower (Fusarium graminearum)	Wheat Leaf Rust Control at a compound concentration of 10 ppm or lower (Puccinia triticina)	Asian Soybean Rust Control at a compound concentration of 25 ppm or lower (Phakopsora pachyrhizi)	other results
CCNC(=O)[C@@H](C)n1c(=O)c2c(C)c(-n3nccn3)sc2n(C[C@H](OCCC#N)c2cc(F)ccc2OC)c1=O [Compound I-289, (R)-2-(1-((R)-2-(2-cyanoethoxy)-2-(5-fluoro-2-methoxyphenyl)ethyl)-5-methyl-2,4-dioxo-6-(2H-1,2,3-triazol-2-yl)-1,4-dihydrothieno[2,3-d]pyrimidin-3 (2H)-yl)-N-ethylpropanamide]	2 µg/mL (≈ 3.51 µM)	0.08 µg/mL (≈ 0.14 µM)	0.4 µg/mL (≈ 0.702 µM)	0.08 µg/mL (≈ 0.14 µM)	0.4 µg/mL (≈ 0.702 µM)	≥ 10 µg/mL	0.08 µg/mL (≈ 0.14 µM)	> 50 µg/mL	AA (≥85% control of barley powdery mildew)	AA (≥85% control of cucumber powdery mildew)	AA (≥85% control of wheat septoria leaf blotch)	C (from 25 to 49% control of wheat fusarium head blight)	AA (≥85% control of wheat leaf rust)	AA (≥85% control of Asian soybean rust)	–
COc1ccc(F)cc1[C@H](Cn1c(=O)n(C(C)(C)C(=O)NC(C)C)c(=O)c2c(C)c(-n3cccn3)sc21)OC[C@@H](C)C#N [Compound I-262, 2-(1-((R)-2-((S)-2-cyanopropoxy)-2-(5-fluoro-2-methoxyphenyl)ethyl)-5-methyl-2,4-dioxo-6-(1H-pyrazol-1-yl)-1,4-dihydrothieno[2,3-d]pyrimidin-3 (2H)-yl)-N-isopropyl-2-methylpropanamide]	0.4 µg/mL (≈ 0.655 µM)	0.08 µg/mL (≈ 0.131 µM)	2 µg/mL (≈ 3.27 µM)	≥ 0.08 µg/mL	0.4 µg/mL (≈ 0.655 µM)	≥ 10 µg/mL	0.08 µg/mL (≈ 0.131 µM)	≥ 2 µg/mL	A (from 70% to 84% control of barley powdery mildew)	AA (≥85% control of cucumber powdery mildew)	AA (≥85% control of wheat septoria leaf blotch)	B (from 50 to 69% control of wheat fusarium head blight)	AA (≥85% control of wheat leaf rust)	AA (≥85% control of Asian soybean rust)	–
COCCCO[C@@H](Cn1c(=O)n(C(C)(C)C(=O)NC(C)C)c(=O)c2c(C)c(-n3nccn3)sc21)c1cc(F)ccc1OC [Compound I-084, (R)-2-(1-(2-(5-fluoro-2-methoxyphenyl)-2-(3-methoxypropoxy)ethyl)-5-methyl-2,4-dioxo-6-(2H-1,2,3-triazol-2-yl)-1,4-dihydrothieno[2,3-d]pyrimidin-3 (2H)-yl)-N-isopropyl-2-methylpropanamide]	–	–	–	–	–	–	–	–	AA (≥85% control of barley powdery mildew)	–	AA (≥85% control of wheat septoria leaf blotch)	–	A (from 70% to 84% control of wheat leaf rust)	–	IC90 (Botrtyis cinerea (Bc); ≥90% inhibition, 48 hours vs 2% DMSO control, read-out: Compound Concentration (ppm) sufficient for ≥90% inhibition of growth, Bc): 0.4 µg/mL (≈ 0.649 µM); IC90 ([1]; ≥90% inhibition, 48 hours vs 2% DMSO control, read-out: Compound Concentration (ppm) sufficient for ≥90% inhibition of growth, Cg): 0.4 µg/mL (≈ 0.649 µM); IC90 (Diplodia maydis (Dm); ≥90% inhibition, 48 hours vs 2% DMSO control, read-out: Compound Concentration (ppm) sufficient for ≥90% inhibition of growth, Dm): 0.08 µg/mL (≈ 0.13 µM); IC90 ([2]; ≥90% inhibition, 48 hours vs 2% DMSO control, read-out: Compound Concentration (ppm) sufficient for ≥90% inhibition of growth, Fm): 0.08 µg/mL (≈ 0.13 µM); IC90 ([3]; ≥90% inhibition, 48 hours vs 2% DMSO control, read-out: Compound Concentration (ppm) sufficient for ≥90% inhibition of growth, Fv): 0.08 µg/mL (≈ 0.13 µM); IC90 ([4]; ≥90% inhibition, 48 hours vs 2% DMSO control, read-out: Compound Concentration (ppm) sufficient for ≥90% inhibition of growth, Pc): > 50 µg/mL; IC90 (Rhizoctonia solani (Rs); ≥90% inhibition, 48 hours vs 2% DMSO control, read-out: Compound Concentration (ppm) sufficient for ≥90% inhibition of growth, Rs): 0.4 µg/mL (≈ 0.649 µM); IC90 (Septoria tritici (St); ≥90% inhibition, 48 hours vs 2% DMSO control, read-out: Compound Concentration (ppm) sufficient for ≥90% inhibition of growth, St): ≥ 10 µg/mL
CCOC(=O)c1sc2c(c1C)c(=O)n([C@H](C)C(=O)NC(C)C)c(=O)n2C[C@H](OCCC#N)c1cc(F)ccc1OC [Compound I-220, (R)-ethyl-1-(2-(2-cyanoethoxy)-2-(5-fluoro-2-methoxyphenyl)ethyl)-3-((R)-1-(isopropylamino)-1-oxopropan-2-yl)-5-methyl-2,4-dioxo-1,2,3,4-tetrahydrothieno[2,3-d]pyrimidine-6-carboxylate]	–	–	–	0.08 µg/mL (≈ 0.136 µM)	0.4 µg/mL (≈ 0.68 µM)	–	–	> 50 µg/mL	AA (≥85% control of barley powdery mildew)	AA (≥85% control of cucumber powdery mildew)	B (from 50 to 69% control of wheat septoria leaf blotch)	C (from 25 to 49% control of wheat fusarium head blight)	C (from 25 to 49% control of wheat leaf rust)	B (from 50 to 69% control of Asian soybean rust)	Compound Concentration (ppm) sufficient for ≥90% inhibition of Rs (Rhizoctonia solani (Rs); ≥90% growth inhibition, 48 hours, vs 2% DMSO control): 0.08 ppm
COCCO[C@@H](Cn1c(=O)n([C@H](C)C(=O)NC(C)C)c(=O)c2c(C)c(-n3cccn3)sc21)c1cc(F)ccc1OC [Compound I-310, (R)-2-(1-((R)-2-(5-fluoro-2-methoxyphenyl)-2-(2-methoxyethoxy)ethyl)-5-methyl-2,4-dioxo-6-(1H-pyrazol-1-yl)-1,4-dihydrothieno[2,3-d]pyrimidin-3 (2H)-yl)-N-isopropylpropanamide]	2 µg/mL (≈ 3.4 µM)	2 µg/mL (≈ 3.4 µM)	≥ 2 µg/mL	0.08 µg/mL (≈ 0.136 µM)	–	> 50 µg/mL	0.08 µg/mL (≈ 0.136 µM)	> 50 µg/mL	AA (≥85% control of barley powdery mildew)	AA (≥85% control of cucumber powdery mildew)	B (from 50 to 69% control of wheat septoria leaf blotch)	C (from 25 to 49% control of wheat fusarium head blight)	C (from 25 to 49% control of wheat leaf rust)	C (from 25 to 49% control of Asian soybean rust)	–
